Assay results: patent US4080466A, “Pharmaceutical compositions containing 4-hydroxyl-1,3-dithiolan-2-ylidene malonates” (Nihon Nohyaku Co., Ltd., priority 1976, dated 1978)

Key:
[1] = tested on: acute liver damage induced by carbon tetrachloride; assay: Protective Effect on Acute Liver Damage associated with Centrilobular Necrosis (carbon tetrachloride); assay type: in vivo, mice (dd-strain); details: 250 mg/kg oral, average of 5 to 6 mice; for Liver damage index: 6 h before CCl4 (0.05 ml/kg oral), score 0 Normal, 2 slight, 4 clear, 6 heavy damage; for p-GPT (plasma glutamic-pyruvic transaminase activity): 6 h before CCl4, 24 h after CCl4, values over 1,000 regarded as 1,000
Description: Carbon tetrachloride (CCl4) administration induces centrilobular necrosis of the liver associated with loss of diphosphopyridine nucleotide, hepatic glycogen, coenzyme A and increase in neutral fat. Release of several enzymes from the hepatocytes, and increase of enzyme activities in the plasma are recognized as the result of the damage of the liver. A suitable means for evaluating the degree of damage induced by CCl4 or the degree of protection afforded by drugs is to study the plasma glutamic-pyruvic transminase (p-GPT) activity.
Methods: The test compounds were dissolved or suspended in olive oil and administered orally at the dose of 250 mg/kg to the mice (Four-week-old male mice-dd strain). After 6 hours, CCl4 was administered orally (0.05 ml/kg as olive oil solution). Animals were killed 24 hours after CCl4 administration, and the liver was grossly observed. The plasma was obtained by centrifugation. Activities of p-GPT were determined by the method of Reitman and Frankel and expressed in Karmen units.
Score for liver damage index was as follows:
4 Clearly observable damage
Each figure indicates average of 5 to 6 mice. Values of p-GPT over 1,000 Karmen unit regarded as 1,000 for calculation of average for convenience.

[2] = tested on: acute liver damage induced by allyl alcohol; assay: Protective Effect on Acute Liver Damage associated with Periportal Necrosis (allyl alcohol), BSP test; assay type: in vivo, mouse (dd-strain); details: 100 mg/kg oral, 6 h before allyl alcohol (0.075 mg/kg oral); 24 h
Procedure: The compund of this invention or anethol trithion was orally administered to the male mouse (4 week-old, dd-strain) at the dose of 100 mg/kg. Six hours after it, allyl alcohol was orally administered at the dose of 0.075 mg/kg. Twenty four hours after it, the animals were sacrificed to collect blood samples.

[3] = tested on: acute hepatitis induced by D-galactosamine; assay: Protective Effect on Acute Hepatitis associated with Mesenchymal Reaction and Discrete Lobular Necrosis (D-galactosamine); assay type: in vivo, rat (SD strain); details: 100 mg/kg oral, 6 h before D-galactosamine 600 mg/kg i.p. (+ 300 mg/kg)
Procedure: D-Galactosamine is a compound which induces a discrete lobular necrosis associated with mesenchymal reaction similar to the change observed in human viral hepatitis, so that it is frequently used in producing a model for viral hepatitis.
The compound of this invention or anethol trithion was administered orally to the male rat (SD strain) at the dose of 100 mg/kg. Six hours after it, D-galactosamine was intraperitoneally administered at the dose of 600 mg/kg. Four hours after it, an additional 300 mg/kg was administered intraperitoneally. Eight hours after it, the animals were sacrificed to collect the blood samples. P-GPT activity and triglyceride in the liver were measured to evaluate the effect of the compound of this invention.

[4] = tested on: excretion of biliary salt; assay: Cholagogic Action: effect on the excretion of biliary salt; assay type: in vivo, rats (SD-JCL strain); details: 200 mg/kg oral, before treatment = 100
Procedure: (§1) Drugs as choleresis are used for patients to improve bile flow. In the present example, the effect of the compound of the invention on the quantities of bile and biliary salt is investigated. Methods:
(§2) The male rats (4 week-aged, SD-JCL strain) were anesthetized with sodium pentobarbital (37.5 mg/kg, intraperitoneal injection). The abdominal cavity was opened through a midline incision. The common bile duct was catheterized with polyethylene tube o.d. 0.8 mm. The catheter was brought to the outside through the abdominal incision would prior to closing. Bile was collected from the catheter continuously with time intervals of one hour. The quantity of bile produced in one hour was determined by weighing and that of biliary salt was determined by enzymatic method (Ikagaku Jikkenho Koza 1B, Biological Constituents II, edited by Tamio YAMAKAWA). The amount of biliary salt was represented in the term of cholic acid equivalent.
(§3) In the representation of the results, the quantities of bile and biliary salt produced in one hour prior to the administration of drug were taken as 100. The compound of this invention was orally administered at the dose of 200 mg/kg. As reference, anethol trithion was used.

[5] = tested on: chronic liver damage induced by thioacetamide; assay: Therapeutic Effect on Chronic Liver Damage (thioacetamide), BSP test; assay type: in vivo, rats (Spraque Dawley strain); details: normal diet + 0.2% of compound after 12 times TAA 100 mg/kg
Procedure: In the tests of this Example, TAA was repeatedly administered to animals to prepare test animals suffering from somewhat chronic liver damages, and then the present compounds were administered thereto to know whether or not the compounds were effective against chronic hepatitis.
The degree of the liver damage and the therapeutic effects of the compounds were evaluated according to BSP test. The BSP test is a method in which BSP (sulfobromophthalein sodium), a dye known to be quickly metabolized in and excreted from the liver, is intravenously injected into animals and, after a definite period of time, the blood is taken out to measure the amount of BSP remaining in the plasma. In case the animals are suffering from the lever damage, the dye will remain, according to the degree of the damage, at the stage where a major portion of BSP metabolized and excreted in the case of normal animals.
Five groups of rats (Spraque Dawley strain) were treated as follows:
Group A: The rats were orally administered with 100 mg/kg of thioacetamide,at 3 days intervals for 36 days (12 times of the administration), then were submitted for 10 days to a normal diet.
Group B: The rats were orally administered with 100 mg/kg of thioacetamide at 3 days intervals for 36 days (12 times of the administration), then were submitted for 10 days to the normal diet + 0.2% of compound 4.
Group C: The rats were orally administered with 100 mg/kg of thioacetamide at 3 days intervals for 36 days (12 times of the administration), then were submitted for 10 days to the normal diet + 0.2% of compound 2.
Group D: The rats were orally administered with 100 mg/kg of thioacetamide at 3 days intervals for 36 days (12 times of the administration), then were submitted for 10 days to the normal diet + 0.2% of anethol trithion.
Group E: The rats were submitted to the normal diet as the control.
Five rats were sacrificed from each group at appropriate intervals for BSP (sulfobromophthalein) test, the results of which were shown as amounts (mg) of BSP remaining in 1 dl of plasma.

bile flow = assay: Cholagogic Action: effect on bile flow; assay type: in vivo, rats (SD-JCL strain); details: 200 mg/kg oral; for Bile flow: before treatment = 100
Procedure: as §1, §2, §3

[6] = tested on: fatty liver induced by carbon tetrachloride; assay: Therapeutic Effect on Fatty Liver (carbon tetrachloride); assay type: in vivo, rats (SD strain)
Procedure: Methods: […] The treated animals were left for 3 days after the last administration to maximize the manifestation of fatty liver. […] It was orally given everyday for 10 days at the dose of 50 or 250 mg/kg. On the 11th day, the animals were sacrificed. The therapeutic effect was evaluated by determining the content of liquid in the liver (triglyceride and total lipid) and examining the histopathological changes. Triglyceride and total lipid were determined colorimetrically by chromotropic acid method and Bragdon's oxidation method, respectively. Indices for the histopathological change is as follows: […]

[7] = tested on: fatty liver induced by ethionine; assay: Effect on Fatty Liver (ethionine); assay type: in vivo, mouse (dd-strain); details: 24 h, 10 animals
Description: But, the fatty liver is grouped into a couple of patterns from the mechanism of lipid accumulation or metabolism of lipoprotein in the liver. Ethionine is a typical example which induces first pattern of fatty liver. It inhibits RNA and protein synthesis and destructs polysome of the liver cell. Fatty liver is induced by inhibition of the protein synthesis and disturbance of lipoprotein secretion.
Usually, fatty liver is closely related to the accumulation of triglyceride in the liver. In the present example, the degree of fatty liver and protective or therapeutic effect against the fatty liver was evaluated by measurement of triglyceride content in the liver. Methods:
The compounds of this invention and methionine were independently dissolved or suspended into olive oil and administered orally to 4 week-old male mouse (dd-strain) at the dose of 250 mg/kg. One hour before it, simultaneously to it, or one hour after it, ethionine dissolved in equimolar NaOH solution was administered intraperitoneally at the dose of 200 mg/kg. Twenty four hours after the administration of ethionine, the animals were sacrificed and triglyceride content in the liver was determined by chromotropic acid method.

With `CCCOC(=O)C(C(=O)OCCC)=C1SCC(OC(C)=O)S1` (centres unmarked) [Compound 9, Di-n-propyl-4-acetoxy-1,3-dithiolan-2-ylidene malonate] the Liver damage index [1] was 0.8 and the “p-GPT (plasma glutamic-pyruvic transaminase activity)” value [1] was 102 Karmen units.

In the case of `NC(=O)CCCCC1CCSS1` (centres unmarked) [Thioctic acid amide, reference compound], the Liver damage index [1] is reported as 4.8 and the “p-GPT (plasma glutamic-pyruvic transaminase activity)” value [1] is reported as 763 Karmen units.

For `CCC(=O)OC1CSC(=C(C(=O)OC(C)C)C(=O)OC(C)C)S1` (centres unmarked) [Compound 8, Diisopropyl 4-propionyloxy-1,3-dithiolan-2-ylidene malonate], the Liver damage index [1] was 0.6 and the “p-GPT (plasma glutamic-pyruvic transaminase activity)” value [1] was 62 Karmen units.

`ClC(Cl)(Cl)Cl` [Carbon tetrachloride, reference compound] was tested, and the Liver damage index [1] was 5.2 and the “p-GPT (plasma glutamic-pyruvic transaminase activity)” value [1] was > 1,000 Karmen units.

In the case of `COc1ccc(-c2cc(=S)ss2)cc1` [Anethol trithion, reference compound], the “BSP (residual quantity)” value [2] is reported as 19.3 ± 4.6, the Triglyceride in liver [3] is reported as 9.2 ± 1.5 mg/g and the p-GPT [3] is reported as 106 ± 30 Karmen unit. The “Excretion of biliary salt” value ([4]; 1 hour after treatment) was 108 ± 12, the “Excretion of biliary salt” value ([4]; 2 hours after treatment) was 89 ± 11 and the “Excretion of biliary salt” value ([4]; 3 hours after treatment) was 66 ± 3.8. The “Excretion of biliary salt” value ([4]; 4 hours after treatment) was 47 ± 3.0, the “Excretion of biliary salt” value ([4]; 5 hours after treatment) was 3.3 ± 4.0 and the “BSP remaining in plasma” value ([5]; 2 days) was 9.7 ± 4.1 mg/dL. For the same compound, the “BSP remaining in plasma” value ([5]; 5 days) was 7.3 ± 3.4 mg/dL, the “BSP remaining in plasma” value ([5]; 10 days) was 0.9 ± 0.1 mg/dL and the Bile flow (bile flow; 1 hour after treatment) was 114 ± 15. It also gave a Bile flow (bile flow; 2 hours after treatment) of 114 ± 15, a Bile flow (bile flow; 3 hours after treatment) of 102 ± 11 and a Bile flow (bile flow; 4 hours after treatment) of 95 ± 7.7. For the same compound, the “Quantity of total excreted bile relative to control” value (bile flow; 5 hours after administration) was 1.10 times, the Bile flow (bile flow; 5 hours after treatment) was 86 ± 6.6 and the Liver damage index [1] was 1.6. The “p-GPT (plasma glutamic-pyruvic transaminase activity)” value [1] was 38 Karmen units.

In the case of `CC(C)COC(=O)C(C(=O)OCC(C)C)=C1SCC(O)S1` (centres unmarked) [Compound 3, Diisobutyl 4-hydroxy-1,3-dithiolan-2-ylidene malonate], the Liver damage index [1] is reported as 0.3 and the “p-GPT (plasma glutamic-pyruvic transaminase activity)” value [1] is reported as 52 Karmen units.

With `CSCC[C@H](N)C(=O)O` [Methionine, reference compound] the Total lipid ([6]; 250 mg/kg oral, 10 days) was 156.8 ± 23.8 mg/g-liver, the Triglyceride ([6]; 250 mg/kg oral, 10 days) was 42.7 ± 7.2 mg/g-liver and the “therapeutic effect on fatty liver (in words)” value ([6]; 50 or 250 mg/kg oral) was “hardly exhibited a therapeutic effect”. For the same compound, the “Degree of fatty liver (histopathological examination)” value ([6]; dose not printed in Table 8, one symbol per animal) was “± ± ++ ++ ++ + +” and the Triglyceride ([7]; 250 mg/kg oral, simultaneous with ethionine (0 hr)) was 10.8 ± 0.88 mg/g-liver.

For `CCSCC[C@H](N)C(=O)O` [Ethionine, reference compound], the Triglyceride ([7]; ethionine alone (positive control), 200 mg/kg i.p.) was 15.6 ± 1.34 mg/g-liver.

`CCOC(=O)C(C(=O)OCC)=C1SCC(OC(C)=O)S1` (centres unmarked) [Compound 5, Diethyl 4-acetoxy-1,3-dithiolan-2-ylidene malonate] was tested, and the Liver damage index [1] was 1.2 and the “p-GPT (plasma glutamic-pyruvic transaminase activity)” value [1] was 106 Karmen units.

For `CC(=O)OC1CSC(=C(C(=O)OC(C)C)C(=O)OC(C)C)S1` (centres unmarked) [Compound 7, Diisopropyl 4-acetoxy-1,3-dithiolan-2-ylidene malonate], the Liver damage index [1] was 0.4 and the “p-GPT (plasma glutamic-pyruvic transaminase activity)” value [1] was 80 Karmen units.

With `CCOC(=O)C(C(=O)OCC)=C1SCC(OC(=O)CC)S1` (centres unmarked) [Compound 6, Diethyl 4-propionyloxy-1,3-dithiolan-2-ylidene malonate] the Liver damage index [1] was 1.4 and the “p-GPT (plasma glutamic-pyruvic transaminase activity)” value [1] was 210 Karmen units.
